Assay results as given in ChEMBL document CHEMBL5442741, “ASAP - In vitro kinase profile” (2024).
Several values for one entry are separate records, joined by “and”; a condition that tells them apart may be missing. Equal entries are not always repeated.

Assays:
[1] = target: Tyrosine-protein kinase Lyn (Homo sapiens) (UniProt P07948); test: Enzymatic radiometric [Km ATP] KinaseProfiler LeadHunter assay, kinase: Lyn, catalogue number: 14-510KP The assay has been performed by Eurofins Discovery.; settings: ATP concentration 70.0 uM, Test compound concentration 10.0 uM
[2] = target: Serine/threonine-protein kinase 10 (Homo sapiens) (UniProt O94804); test: Enzymatic radiometric [Km ATP] KinaseProfiler LeadHunter assay, kinase: LOK, catalogue number: 14-686KP The assay has been performed by Eurofins Discovery.; settings: ATP concentration 120.0 uM, Test compound concentration 10.0 uM
[3] = target: T1, Mitogen-activated protein kinase kinase kinase 5 (Homo sapiens) (UniProt Q99683); test: Enzymatic radiometric [Km ATP] KinaseProfiler LeadHunter assay, kinase: ASK1, catalogue number: 14-606KP The assay has been performed by Eurofins Discovery.; settings: ATP concentration 200.0 uM, Test compound concentration 10.0 uM
T1 sequence (whole entry): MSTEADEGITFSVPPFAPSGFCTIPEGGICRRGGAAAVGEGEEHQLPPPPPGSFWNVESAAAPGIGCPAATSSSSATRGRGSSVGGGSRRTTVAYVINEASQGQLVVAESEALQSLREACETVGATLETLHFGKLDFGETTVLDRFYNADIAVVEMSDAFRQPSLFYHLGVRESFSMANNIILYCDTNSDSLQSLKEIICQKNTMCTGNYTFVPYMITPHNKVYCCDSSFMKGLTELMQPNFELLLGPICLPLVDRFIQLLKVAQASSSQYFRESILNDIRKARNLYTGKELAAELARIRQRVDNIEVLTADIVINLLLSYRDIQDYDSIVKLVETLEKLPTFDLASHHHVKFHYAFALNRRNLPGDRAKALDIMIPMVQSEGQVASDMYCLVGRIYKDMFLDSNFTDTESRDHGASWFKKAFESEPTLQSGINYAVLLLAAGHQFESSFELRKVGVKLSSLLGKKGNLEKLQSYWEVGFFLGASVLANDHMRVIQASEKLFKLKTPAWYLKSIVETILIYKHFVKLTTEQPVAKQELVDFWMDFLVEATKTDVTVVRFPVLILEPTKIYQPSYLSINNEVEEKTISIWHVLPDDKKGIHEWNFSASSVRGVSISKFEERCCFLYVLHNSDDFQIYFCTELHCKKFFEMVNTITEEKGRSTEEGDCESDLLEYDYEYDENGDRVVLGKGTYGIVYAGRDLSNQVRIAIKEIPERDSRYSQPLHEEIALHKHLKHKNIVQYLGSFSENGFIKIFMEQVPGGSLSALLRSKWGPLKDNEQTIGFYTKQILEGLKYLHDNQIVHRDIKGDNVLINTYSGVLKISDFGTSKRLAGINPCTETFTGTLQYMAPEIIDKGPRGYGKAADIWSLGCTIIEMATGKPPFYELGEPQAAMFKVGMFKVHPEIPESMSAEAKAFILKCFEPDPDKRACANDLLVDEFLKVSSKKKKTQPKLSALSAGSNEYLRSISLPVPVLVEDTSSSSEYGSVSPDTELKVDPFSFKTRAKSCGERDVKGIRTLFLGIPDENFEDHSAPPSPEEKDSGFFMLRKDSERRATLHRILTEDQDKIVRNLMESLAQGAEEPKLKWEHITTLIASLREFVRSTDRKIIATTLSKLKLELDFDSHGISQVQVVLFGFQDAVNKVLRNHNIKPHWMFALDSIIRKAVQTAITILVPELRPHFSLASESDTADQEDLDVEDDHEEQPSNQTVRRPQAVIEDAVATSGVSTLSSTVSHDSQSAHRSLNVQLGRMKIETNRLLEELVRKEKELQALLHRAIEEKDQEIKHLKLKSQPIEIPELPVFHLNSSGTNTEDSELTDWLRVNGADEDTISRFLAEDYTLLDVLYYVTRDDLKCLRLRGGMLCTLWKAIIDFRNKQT

[4] = target: Protein kinase C alpha type (Homo sapiens) (UniProt P17252); test: Enzymatic radiometric [Km ATP] KinaseProfiler LeadHunter assay, kinase: PKC-alpha, catalogue number: 14-484KP The assay has been performed by Eurofins Discovery.; settings: ATP concentration 45.0 uM, Test compound concentration 10.0 uM
[5] = target: CDK6/cyclin D3 (Homo sapiens) (UniProt P30281+Q00534); test: Enzymatic radiometric [Km ATP] KinaseProfiler LeadHunter assay, kinase: CDK6/cyclinD3, catalogue number: 14-519KP The assay has been performed by Eurofins Discovery.; type: protein-complex assay; settings: ATP concentration 200.0 uM, Test compound concentration 10.0 uM
[6] = target: Calcium/calmodulin-dependent protein kinase type 1 (Homo sapiens) (UniProt Q14012); test: Enzymatic radiometric [Km ATP] KinaseProfiler LeadHunter assay, kinase: CaMKI, catalogue number: 14-663KP The assay has been performed by Eurofins Discovery.; settings: ATP concentration 200.0 uM, Test compound concentration 10.0 uM
Sequence of Calcium/calmodulin-dependent protein kinase type 1 (Homo sapiens) (Q14012 whole entry, looked up): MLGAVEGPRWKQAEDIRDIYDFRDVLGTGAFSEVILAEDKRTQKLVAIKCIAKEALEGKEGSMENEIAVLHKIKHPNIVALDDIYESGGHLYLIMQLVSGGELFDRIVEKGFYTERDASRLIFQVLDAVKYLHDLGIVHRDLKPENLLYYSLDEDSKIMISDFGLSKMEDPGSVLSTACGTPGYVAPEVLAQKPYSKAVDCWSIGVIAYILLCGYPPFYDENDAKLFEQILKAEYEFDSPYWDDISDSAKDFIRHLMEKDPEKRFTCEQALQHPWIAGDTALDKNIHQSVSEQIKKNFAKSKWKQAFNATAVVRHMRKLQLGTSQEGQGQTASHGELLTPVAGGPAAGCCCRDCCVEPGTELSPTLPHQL

Sequence of Serine/threonine-protein kinase 10 (Homo sapiens) (O94804 whole entry, looked up): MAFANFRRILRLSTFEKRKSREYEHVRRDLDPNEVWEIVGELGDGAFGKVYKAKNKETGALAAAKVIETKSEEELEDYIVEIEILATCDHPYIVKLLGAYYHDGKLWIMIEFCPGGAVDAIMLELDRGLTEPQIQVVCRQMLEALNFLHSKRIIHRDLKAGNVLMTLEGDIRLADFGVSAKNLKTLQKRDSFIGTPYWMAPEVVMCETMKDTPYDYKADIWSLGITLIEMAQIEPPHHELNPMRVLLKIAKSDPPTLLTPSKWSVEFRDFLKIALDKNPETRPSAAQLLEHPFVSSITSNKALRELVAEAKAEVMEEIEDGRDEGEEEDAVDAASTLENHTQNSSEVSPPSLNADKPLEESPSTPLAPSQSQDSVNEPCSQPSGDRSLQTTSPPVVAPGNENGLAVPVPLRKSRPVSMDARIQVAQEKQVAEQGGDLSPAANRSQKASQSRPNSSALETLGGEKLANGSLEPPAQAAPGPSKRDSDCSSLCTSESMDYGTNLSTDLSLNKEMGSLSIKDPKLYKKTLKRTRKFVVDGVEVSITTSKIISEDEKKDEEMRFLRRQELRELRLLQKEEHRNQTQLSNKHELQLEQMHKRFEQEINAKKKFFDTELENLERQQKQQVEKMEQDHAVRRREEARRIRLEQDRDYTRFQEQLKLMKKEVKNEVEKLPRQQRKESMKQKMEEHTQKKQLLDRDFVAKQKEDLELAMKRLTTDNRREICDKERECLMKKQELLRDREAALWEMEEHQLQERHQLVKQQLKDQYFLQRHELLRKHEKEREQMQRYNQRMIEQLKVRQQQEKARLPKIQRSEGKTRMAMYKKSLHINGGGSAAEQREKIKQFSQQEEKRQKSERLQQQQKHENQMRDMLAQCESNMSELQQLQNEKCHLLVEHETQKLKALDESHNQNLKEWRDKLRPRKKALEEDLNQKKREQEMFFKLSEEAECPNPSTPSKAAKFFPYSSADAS
Sequence of Tyrosine-protein kinase Lyn (Homo sapiens) (P07948 2-512 limits assumed): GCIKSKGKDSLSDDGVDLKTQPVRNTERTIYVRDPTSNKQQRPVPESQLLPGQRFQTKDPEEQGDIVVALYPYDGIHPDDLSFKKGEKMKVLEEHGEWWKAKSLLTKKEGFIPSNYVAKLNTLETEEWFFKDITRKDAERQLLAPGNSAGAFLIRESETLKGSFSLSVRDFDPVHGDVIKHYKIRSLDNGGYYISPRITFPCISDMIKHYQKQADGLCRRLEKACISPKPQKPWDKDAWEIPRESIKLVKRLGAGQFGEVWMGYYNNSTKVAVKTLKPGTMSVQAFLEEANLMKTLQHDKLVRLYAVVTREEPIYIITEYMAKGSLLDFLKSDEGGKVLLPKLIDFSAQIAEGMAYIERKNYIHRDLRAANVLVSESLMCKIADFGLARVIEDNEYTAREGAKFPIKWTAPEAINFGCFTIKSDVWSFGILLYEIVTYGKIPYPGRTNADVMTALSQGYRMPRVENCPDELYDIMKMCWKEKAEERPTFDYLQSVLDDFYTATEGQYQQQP

Activity [1] | Activity [2] | Activity [3] | Activity [4] | Activity [5] | Activity [6] | SMILES
94% | 97% | 102% | 108% | 97% | 101% | C[C@H](C(=O)O)[C@@H](NC(=O)c1ncnc2[nH]ccc12)c1ccc(Br)cc1
107% | 99% | 105% | 101% | 99% | 100% | CC(C)[C@@H](Nc1ncnc2[nH]c(C(=O)N[C@@H]3CCN(C)C3)cc12)c1ccc2c(c1)S(=O)(=O)CCC2
75% | 83% | 103% | 95% | 107% | 101% | CNC(=O)Cn1cc(-c2cc3c(N[C@@H](c4ccc5c(c4)S(=O)(=O)CCC5)C(C)C)ncnc3[nH]2)cn1
104% | 102% | 105% | 98% | 105% | 92% | CC(C)[C@H](Nc1ncnc2[nH]ccc12)c1ccc2c(c1)S(=O)(=O)CCC2

More lines, now with the values behind:

SMILES | Activity [1] | Activity [2] | Activity [3] | Activity [4] | Activity [5] | Activity [6]
Cn1ncc(-c2cc3c(N[C@@H](c4ccc5c(n4)OCCO5)C(C)(C)C)ncnc3[nH]2)c1C#N | 101% | 122% | 108% | 87% | – | 87%
COc1ccc([C@@H](Cc2nnn[nH]2)NC(=O)c2ncnc3[nH]ccc23)cc1 | 111% | 96% | 101% | 95% | 100% | 100%
CC(C)[C@@H](Nc1ncnc2[nH]ccc12)c1ccc2c(c1)S(=O)(=O)CCC2 | 112% | 104% | 108% | 104% | 99% | 94%
COc1ccc([C@H](Cc2nnn[nH]2)NC(=O)c2ncnc3[nH]ccc23)cc1 | 108% | 102% | 103% | 93% | 102% | –
Cc1nn(C)cc1-c1cc2c(N[C@H](c3ccc4c(c3)S(=O)(=O)CCC4)C(C)C)ncnc2[nH]1 | 48% | 93% | 103% | 93% | 106% | 101%
CC(C)[C@H](Nc1ncnc2[nH]c(-c3cnn(C)c3C#N)cc12)c1ccc2c(n1)OCCO2 | 79% | 45% | 106% | – | 102% | 104%
CNCc1cc(-c2cc3c(N[C@@H](c4ccc5c(c4)S(=O)(=O)CCC5)C(C)C)ncnc3[nH]2)co1 | 47% | 92% | – | 99% | 92% | 87%
CC(C)[C@@H](Nc1ncnc2[nH]c(-c3cnn(C)c3C#N)cc12)c1ccc2c(n1)OCCO2 | – | – | – | 90% and 99% | – | 104% and 95%
